We go through one compound from US7220740B2, “1,4-diazabicyclo[3.2.2]nonabenzoxazole, -benzothiazole and benzimidazole derivatives, preparation and therapeutic use thereof” (Sanofi-aventis, priority 2000, dated 2007).

Usually melting point stands for the temperature of the solid-liquid transition.

Consider `O=[N+]([O-])c1ccc2oc(N3CCN4CCC3CC4)nc2c1`, for which the melting point was in the range of 158 to 160 °C.
